Results from patent US10173985B2, “Aminoindazole derivatives as sodium channel inhibitors” (ALMIRALL, S.A., priority 2015, dated 2019).

Columns and labels:
[1] = target: voltage-gated sodium channel Nav1.7 (Homo sapiens (Human), UniProt Q15858); assay: Nav1.7 screening assay, IonWorks Quattro automated patch-clamp electrophysiology; format: cell-based; details: stable CHO or HEK293 cell line expressing Nav1.7; percent block at peak 1 and peak 10; 5 minutes compound incubation; read-out: Nav 1.7 IC50
voltage-gated sodium channel Nav1.7, sequence (Q15858 whole entry): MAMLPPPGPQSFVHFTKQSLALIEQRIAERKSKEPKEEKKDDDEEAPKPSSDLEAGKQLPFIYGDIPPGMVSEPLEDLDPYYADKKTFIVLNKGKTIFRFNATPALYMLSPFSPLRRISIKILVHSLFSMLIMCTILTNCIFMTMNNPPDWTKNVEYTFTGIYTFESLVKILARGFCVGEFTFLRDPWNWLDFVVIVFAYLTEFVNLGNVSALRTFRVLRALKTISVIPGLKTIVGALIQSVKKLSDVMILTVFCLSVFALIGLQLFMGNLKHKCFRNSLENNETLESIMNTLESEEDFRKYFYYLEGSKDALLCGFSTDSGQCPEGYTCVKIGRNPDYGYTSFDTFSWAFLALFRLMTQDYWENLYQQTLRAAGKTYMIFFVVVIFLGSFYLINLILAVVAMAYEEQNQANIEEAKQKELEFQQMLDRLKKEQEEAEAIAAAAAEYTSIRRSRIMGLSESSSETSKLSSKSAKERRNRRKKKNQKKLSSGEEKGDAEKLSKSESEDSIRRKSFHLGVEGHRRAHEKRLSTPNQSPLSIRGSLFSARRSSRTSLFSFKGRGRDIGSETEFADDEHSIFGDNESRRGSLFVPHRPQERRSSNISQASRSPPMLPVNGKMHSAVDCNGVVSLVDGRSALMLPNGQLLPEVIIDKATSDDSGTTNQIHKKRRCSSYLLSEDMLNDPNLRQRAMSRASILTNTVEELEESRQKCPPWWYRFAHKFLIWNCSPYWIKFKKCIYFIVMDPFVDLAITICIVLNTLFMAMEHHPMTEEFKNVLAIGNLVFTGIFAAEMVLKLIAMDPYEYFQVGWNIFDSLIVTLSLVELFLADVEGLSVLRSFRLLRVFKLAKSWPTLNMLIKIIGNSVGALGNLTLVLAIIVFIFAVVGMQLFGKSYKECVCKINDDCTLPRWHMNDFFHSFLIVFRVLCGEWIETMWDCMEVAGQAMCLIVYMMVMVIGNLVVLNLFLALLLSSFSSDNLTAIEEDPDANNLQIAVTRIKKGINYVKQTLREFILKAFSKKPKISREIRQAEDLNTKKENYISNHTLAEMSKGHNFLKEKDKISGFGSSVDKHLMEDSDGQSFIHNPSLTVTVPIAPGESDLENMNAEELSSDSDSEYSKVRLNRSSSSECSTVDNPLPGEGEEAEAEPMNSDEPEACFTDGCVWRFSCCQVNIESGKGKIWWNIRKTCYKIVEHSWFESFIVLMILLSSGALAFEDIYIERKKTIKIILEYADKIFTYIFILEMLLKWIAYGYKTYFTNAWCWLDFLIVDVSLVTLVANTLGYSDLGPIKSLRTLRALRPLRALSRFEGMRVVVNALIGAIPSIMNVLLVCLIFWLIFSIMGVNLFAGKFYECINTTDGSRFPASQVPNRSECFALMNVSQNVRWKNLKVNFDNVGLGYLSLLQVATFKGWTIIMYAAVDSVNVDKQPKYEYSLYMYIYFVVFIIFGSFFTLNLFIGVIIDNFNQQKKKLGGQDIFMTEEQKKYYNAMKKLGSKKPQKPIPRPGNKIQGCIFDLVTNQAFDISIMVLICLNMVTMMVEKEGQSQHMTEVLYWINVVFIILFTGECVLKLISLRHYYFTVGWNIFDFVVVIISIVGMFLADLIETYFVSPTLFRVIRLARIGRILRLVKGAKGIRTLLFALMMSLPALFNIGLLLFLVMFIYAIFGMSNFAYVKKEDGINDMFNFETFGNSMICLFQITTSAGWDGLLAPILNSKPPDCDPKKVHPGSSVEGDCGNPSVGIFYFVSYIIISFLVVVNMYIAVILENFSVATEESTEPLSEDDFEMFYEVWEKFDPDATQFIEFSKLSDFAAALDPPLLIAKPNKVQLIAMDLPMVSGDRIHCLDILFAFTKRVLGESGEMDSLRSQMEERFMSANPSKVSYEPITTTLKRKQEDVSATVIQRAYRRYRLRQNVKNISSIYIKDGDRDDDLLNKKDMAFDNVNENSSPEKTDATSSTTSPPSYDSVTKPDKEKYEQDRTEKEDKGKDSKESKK
Description: (§1) Assay Procedure Nav1.7 and Nav1.5 Screening Assay
(§2) Stable cell lines expressing the full-length protein of the voltage-gated sodium channels Nav1.7 or Nav1.5, with or without one beta-1, beta-2, beta-3, or beta-4 subunit, are created by transfected CHO cells or HEK293 cells, or any other suitable cell line, with a vector construct containing the complete open reading frame under a suitable promoter, as well known in the art.
(§3) Electrophysiological studies are performed with an IonWorks Quattro (Molecular Devices Corp.) automated patch-clamp electrophysiology platform as described by (Schroeder K et al. Journal of Biomolecular Screening 2003, 8 (1), 50-64). Buffers for the experiments have the following composition (mM): Internal solution; K-gluconate 100, KCl 40, MgCl2 3.2, HEPES 5, EGTA 3, pH 7.3. To this amphotericin B is added to final concentration of 0.1 mg/ml to generate access solution. External solution; Dulbecco's Phosphate buffered saline (D-PBS) NaCl 137.93, KCl 2.67, KH2PO4 1.47, Na2HPO4 8.06, CaCl2 0.90, MgCl2 0.49. Prior to the experiment the cells expressing the voltage-gated ion channel of interest are detached from the tissue culture flasks, centrifuged and resuspended in D-PBS. Compounds are prepared and serially diluted in DMSO and finally diluted 1:100 in D-PBS. Cells are exposed to compounds through the pipetting system integrated into the platform and the voltage-gated ion channel of interest is activated with specific voltage stimulation protocols. The following voltage stimulation protocol is used for testing compounds against the voltage-gated sodium channel Nav1.7; from a holding potential of −100 mV a train of eight 60 ms depolarising steps to −20 mV at a frequency of 14 Hz are employed followed by a further step to −20 mV for 2000 ms. After which the voltage is returned to −100 mV for 10 ms before another voltage step to −20 mV for 60 ms is applied. The following voltage stimulation protocol is used for testing compounds against the voltage-gated sodium channel Nav1.5; from a holding potential of −120 mV a train of twenty-six 120 ms depolarising steps to −20 mV at a frequency of 5 Hz are employed. Recordings are made before and after compound addition with the compound incubation time being 5 minutes.

[2] = target: voltage-gated sodium channel Nav1.5 (Homo sapiens (Human), UniProt Q14524); assay: Nav1.5 screening assay, IonWorks Quattro automated patch-clamp electrophysiology; format: cell-based; details: stable CHO or HEK293 cell line expressing Nav1.5; percent block at peak 1 and 25; 5 minutes compound incubation; read-out: Nav 1.5 IC50
voltage-gated sodium channel Nav1.5, sequence (Q14524 whole entry): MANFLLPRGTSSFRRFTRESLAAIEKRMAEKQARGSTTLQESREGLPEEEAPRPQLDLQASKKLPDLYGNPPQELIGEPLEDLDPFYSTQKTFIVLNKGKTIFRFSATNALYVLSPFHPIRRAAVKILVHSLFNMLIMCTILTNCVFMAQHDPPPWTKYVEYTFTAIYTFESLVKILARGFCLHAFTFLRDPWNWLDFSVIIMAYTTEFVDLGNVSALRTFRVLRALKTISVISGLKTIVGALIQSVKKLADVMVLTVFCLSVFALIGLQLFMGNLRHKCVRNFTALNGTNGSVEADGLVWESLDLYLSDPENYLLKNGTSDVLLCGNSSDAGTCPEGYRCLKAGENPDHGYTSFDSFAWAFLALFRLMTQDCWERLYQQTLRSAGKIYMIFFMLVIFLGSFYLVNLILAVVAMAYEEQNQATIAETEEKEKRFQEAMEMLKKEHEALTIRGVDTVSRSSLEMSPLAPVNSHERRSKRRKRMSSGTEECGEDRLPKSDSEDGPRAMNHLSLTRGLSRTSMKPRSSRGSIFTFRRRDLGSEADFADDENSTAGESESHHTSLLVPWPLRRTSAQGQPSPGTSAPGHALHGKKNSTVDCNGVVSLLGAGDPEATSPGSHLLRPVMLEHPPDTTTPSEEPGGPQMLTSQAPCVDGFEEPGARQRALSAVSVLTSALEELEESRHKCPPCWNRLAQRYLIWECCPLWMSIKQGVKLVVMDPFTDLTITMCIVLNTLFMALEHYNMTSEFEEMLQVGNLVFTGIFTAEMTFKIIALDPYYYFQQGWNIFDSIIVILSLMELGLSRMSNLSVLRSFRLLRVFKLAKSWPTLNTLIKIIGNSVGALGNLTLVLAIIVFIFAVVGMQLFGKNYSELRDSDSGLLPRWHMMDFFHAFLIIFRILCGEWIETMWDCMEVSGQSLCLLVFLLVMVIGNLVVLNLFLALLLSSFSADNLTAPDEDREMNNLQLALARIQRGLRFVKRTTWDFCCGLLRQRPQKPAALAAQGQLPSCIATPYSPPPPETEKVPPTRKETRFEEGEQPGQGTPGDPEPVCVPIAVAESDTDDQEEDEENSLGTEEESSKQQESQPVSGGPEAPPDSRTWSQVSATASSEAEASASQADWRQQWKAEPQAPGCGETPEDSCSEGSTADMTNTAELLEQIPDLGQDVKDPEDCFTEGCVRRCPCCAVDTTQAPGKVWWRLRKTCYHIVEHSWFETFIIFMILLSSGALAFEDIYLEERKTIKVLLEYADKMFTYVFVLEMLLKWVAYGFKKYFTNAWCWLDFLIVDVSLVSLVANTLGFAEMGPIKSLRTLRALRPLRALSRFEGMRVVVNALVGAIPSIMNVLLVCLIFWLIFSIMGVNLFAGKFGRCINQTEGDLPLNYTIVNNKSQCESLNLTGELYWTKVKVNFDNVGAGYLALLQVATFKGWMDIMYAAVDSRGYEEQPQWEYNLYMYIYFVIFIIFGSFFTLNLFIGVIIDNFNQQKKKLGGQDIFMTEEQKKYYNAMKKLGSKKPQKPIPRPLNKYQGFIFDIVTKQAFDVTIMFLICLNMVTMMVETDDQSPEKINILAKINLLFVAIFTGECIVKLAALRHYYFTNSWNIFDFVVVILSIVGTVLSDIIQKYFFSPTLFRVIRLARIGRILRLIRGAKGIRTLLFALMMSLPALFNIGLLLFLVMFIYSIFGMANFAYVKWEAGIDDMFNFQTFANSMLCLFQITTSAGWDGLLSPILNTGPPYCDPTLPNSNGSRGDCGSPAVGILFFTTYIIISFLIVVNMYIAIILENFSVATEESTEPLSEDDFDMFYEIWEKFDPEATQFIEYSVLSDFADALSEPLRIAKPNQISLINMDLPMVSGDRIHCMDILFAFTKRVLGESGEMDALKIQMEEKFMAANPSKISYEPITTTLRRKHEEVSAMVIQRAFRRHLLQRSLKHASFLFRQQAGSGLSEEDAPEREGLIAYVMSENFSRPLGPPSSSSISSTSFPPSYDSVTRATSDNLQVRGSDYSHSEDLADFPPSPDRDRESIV
Description: as §1, §2, §3

Compound	IC50 [1] [nM]	IC50 [2] [nM]
6-(2-(2,2,3,3,3-pentafluoropropoxy)phenyl)-1H-indazol-3-amine [Example 14]	560	8000
COc1ccc(OCC(F)(F)C(F)(F)F)c(-c2ccc3c(N)nn(C)c3c2)c1 [Example 3, 6-(5-methoxy-2-(2,2,3,3,3-pentafluoropropoxy)phenyl)-1-methyl-1H-indazol-3-amine]		> 33000
Cn1nc(N)c2ccc(-c3ccccc3OCC(F)(F)F)cc21 [Example 8, 1-methyl-6-(2-(2,2,2-trifluoroethoxy)phenyl)-1H-indazol-3-amine]	320	> 33000
Cn1nc(NCCO)c2ccc(-c3ccccc3OCC(F)(F)C(F)(F)F)cc21 [Example 12, 2-(1-methyl-6-(2-(2,2,3,3,3-pentafluoropropoxy)phenyl)-1H-indazol-3-ylamino)ethanol]	820	> 33000
Cn1nc(N)c2ccc(-c3cccc(F)c3OCC(F)(F)C(F)(F)F)cc21 [Example 22, 6-(3-fluoro-2-(2,2,3,3,3-pentafluoropropoxy)phenyl)-1-methyl-1H-indazol-3-amine]	100	> 33000
Cn1nc(N)c2ccc(-c3c(F)cccc3OCC(F)(F)C(F)(F)F)cc21 [Example 24, 6-(2-fluoro-6-(2,2,3,3,3-pentafluoropropoxy)phenyl)-1-methyl-1H-indazol-3-amine]	560	> 33000
NC(=O)Cn1nc(N)c2ccc(-c3cccc(F)c3OCC(F)(F)C(F)(F)F)cc21 [Example 26, 2-(3-amino-6-(3-fluoro-2-(2,2,3,3,3-pentafluoropropoxy)phenyl)-1H-indazol-1-yl)acetamide]	3650	
Cn1nc(NCCCO)c2ccc(-c3ccccc3OCC(F)(F)C(F)(F)F)cc21 [Example 27, 3-(1-methyl-6-(2-(2,2,3,3,3-pentafluoropropoxy)phenyl)-1H-indazol-3-ylamino)propan-1-ol]	1500	19800
COc1cccc(-c2ccc3c(N)nn(C)c3c2)c1OCC(F)(F)F [Example 40, 6-(3-methoxy-2-(2,2,2-trifluoroethoxy)phenyl)-1-methyl-1H-indazol-3-amine]	200	> 33000
COc1cccc(-c2ccc3c(N)nn(C)c3c2)c1OCC(F)F [Example 41, 6-(2-(2,2-difluoroethoxy)-3-methoxyphenyl)-1-methyl-1H-indazol-3-amine]		> 33000

Now from value to compound, other results behind:

IC50 [1] [nM]	Compound	IC50 [2] [nM]
290	Cn1nc(N)c2ccc(-c3cccc(F)c3OCC(F)F)cc21 [Example 42, 6-(2-(2,2-difluoroethoxy)-3-fluorophenyl)-1-methyl-1H-indazol-3-amine]	23000
1860	CN1CCC(CNc2nn(C)c3cc(-c4cccc(F)c4OCC(F)(F)F)ccc23)CC1 [Example 44, 6-(3-fluoro-2-(2,2,2-trifluoroethoxy)phenyl)-1-methyl-N-((1-methylpiperidin-4-yl)methyl)-1H-indazol-3-amine]	4500
2370	Cn1nc(N)c2ccc(-c3cccnc3OCC(F)(F)F)cc21 [Example 47, 1-methyl-6-(2-(2,2,2-trifluoroethoxy)pyridin-3-yl)-1H-indazol-3-amine]	> 33000
1300	CNc1nn(C)c2cc(-c3cccc(F)c3OCC(F)F)ccc12 [Example 57, 6-(2-(2,2-difluoroethoxy)-3-fluorophenyl)-N,1-dimethyl-1H-indazol-3-amine]	> 33000
860	Cn1nc(N)c2ccc(-c3cccc(F)c3OC(F)F)cc21 [Example 58, 6-(2-(difluoromethoxy)-3-fluorophenyl)-1-methyl-1H-indazol-3-amine]	> 33000
740	Nc1nn(CCCO)c2cc(-c3ccccc3C(F)(F)F)ccc12 [Example 67, 3-(3-amino-6-(2-(trifluoromethyl)phenyl)-1H-indazol-1-yl)propan-1-ol]	30000
200	Nc1nn(CCCO)c2cc(-c3ccccc3OC(F)(F)F)ccc12 [Example 68, 3-(3-amino-6-(2-(trifluoromethoxy)phenyl)-1H-indazol-1-yl)propan-1-ol]	25000
2000	COCCn1nc(N)c2ccc(-c3ccccc3OC(F)(F)F)cc21 [Example 82, 1-(2-methoxyethyl)-6-(2-(trifluoromethoxy)phenyl)-1H-indazol-3-amine]	
